# Reference: patent US20070015223A1, “Method of detecting substance to be analyzed” (OLYMPUS CORPORATION, priority 2003, published 2007)
# Legend:
# [1] = tested on: genes to be analyzed in rat liver; assay: microarray expression level ratio, sample amount quantified and matched (Example 5, Table 2)
# [2] = tested on: genes to be analyzed in rat liver; assay: microarray expression level ratio, control experiment with fixed tyramide reaction time of 5 minutes (Table 3)
# [3] = tested on: genes to be analyzed in rat liver; assay: microarray expression level ratio, tyramide reaction time adjusted by GAPDH spot signal intensity (Example 7, Table 1)
# [4] = Phenobal group rat liver, aRNA 200 ng, Deposition Time 5 min.
# [5] = rat liver, aRNA 200 ng both, Deposition Time 5 min. both
# [6] = Phenobal group rat liver, aRNA 400 ng, Deposition Time 5 min.
# [7] = rat liver, aRNA 400 ng vs 100 ng, Deposition Time 5 min. both, corrected using the internal standard gene
# [8] = Phenobal group rat liver, aRNA 400 ng, Deposition Time 2 min.
# [9] = rat liver, aRNA 400 ng vs 100 ng, Deposition Time 2 min. vs 7 min.
smiles,measurement,setting,value
"CCC1(c2ccccc2)C(=O)NC(=O)NC1=O [Phenobal, phenobarbital]","Raw Data (spot signal intensity), Gene a",[1]; [4],650
same,"Raw Data (spot signal intensity), Gene b",[1]; [4],745
same,"Raw Data (spot signal intensity), Gene c",[1]; [4],255
same,"Raw Data (spot signal intensity), Gene d",[1]; [4],2900
same,"Raw Data (spot signal intensity), Gene e",[1]; [4],550
same,"Raw Data (spot signal intensity), Gene f",[1]; [4],65
same,"Raw Data (spot signal intensity), Gene GAPDH","[1]; internal standard gene, Phenobal group rat liver, aRNA 200 ng, Deposition Time 5 min.",2500
same,"Ratio (Phenobal/Control), Gene GAPDH","[1]; internal standard gene, rat liver, aRNA 200 ng both, Deposition Time 5 min. both",1.0
same,"Ratio (Phenobal/Control), Gene a",[1]; [5],1.8
same,"Ratio (Phenobal/Control), Gene b",[1]; [5],2.6
same,"Ratio (Phenobal/Control), Gene c",[1]; [5],0.5
same,"Ratio (Phenobal/Control), Gene d",[1]; [5],2.1
same,"Ratio (Phenobal/Control), Gene e",[1]; [5],0.2
same,"Ratio (Phenobal/Control), Gene f",[1]; [5],1.1
same,"Raw Data (spot signal intensity), Gene a",[2]; [6],1700
same,"Raw Data (spot signal intensity), Gene b",[2]; [6],1875
same,"Raw Data (spot signal intensity), Gene c",[2]; [6],625
same,"Raw Data (spot signal intensity), Gene d",[2]; [6],4095
same,"Raw Data (spot signal intensity), Gene e",[2]; [6],1250
same,"Raw Data (spot signal intensity), Gene f",[2]; [6],150
same,"Raw Data (spot signal intensity), Gene GAPDH","[2]; internal standard gene, Phenobal group rat liver, aRNA 400 ng, Deposition Time 5 min.",4095
same,"Ratio (Phenobal/Control), Gene GAPDH","[2]; internal standard gene, rat liver, aRNA 400 ng vs 100 ng, Deposition Time 5 min. both",1.0
same,"Ratio (Phenobal/Control), Gene a",[2]; [7],2.6
same,"Ratio (Phenobal/Control), Gene b",[2]; [7],4.1
same,"Ratio (Phenobal/Control), Gene c",[2]; [7],0.7
same,"Ratio (Phenobal/Control), Gene d",[2]; [7],1.6
same,"Ratio (Phenobal/Control), Gene e",[2]; [7],0.2
same,"Ratio (Phenobal/Control), Gene f",[2]; [7],1.6
same,"Raw Data (spot signal intensity), Gene A",[3]; [8],680
same,"Raw Data (spot signal intensity), Gene B",[3]; [8],750
same,"Raw Data (spot signal intensity), Gene C",[3]; [8],250
same,"Raw Data (spot signal intensity), Gene D",[3]; [8],2800
same,"Raw Data (spot signal intensity), Gene E",[3]; [8],500
same,"Raw Data (spot signal intensity), Gene F",[3]; [8],60
same,"Raw Data (spot signal intensity), Gene GAPDH","[3]; internal standard gene, Phenobal group rat liver, aRNA 400 ng, Deposition Time 2 min.",2500
same,"Ratio (Phenobal/Control), Gene GAPDH","[3]; internal standard gene, rat liver, aRNA 400 ng vs 100 ng, Deposition Time 2 min. vs 7 min.",1.0
same,"Ratio (Phenobal/Control), Gene A",[3]; [9],1.8
same,"Ratio (Phenobal/Control), Gene B",[3]; [9],2.8
same,"Ratio (Phenobal/Control), Gene C",[3]; [9],0.5
same,"Ratio (Phenobal/Control), Gene D",[3]; [9],1.9
same,"Ratio (Phenobal/Control), Gene E",[3]; [9],0.2
same,"Ratio (Phenobal/Control), Gene F",[3]; [9],1.2
